Data set [1] addresses T1, cAMP and cAMP-inhibited cGMP 3',5'-cyclic phosphodiesterase 10A (Homo sapiens, UniProt Q9Y233). As to the kind of experiment: Inhibition of PDE10A (unknown origin) at 2 uM.
Data set [2] addresses T1, cAMP and cAMP-inhibited cGMP 3',5'-cyclic phosphodiesterase 10A. The data set is described as follows: Inhibition of PDE10A (unknown origin).
In another data set the test system is Liver microsomes. As to the kind of experiment: Intrinsic clearance in human liver microsomes. It counts as ADME, Microsome.
In data set [3] the target is High affinity cGMP-specific 3',5'-cyclic phosphodiesterase 9A (Homo sapiens) (UniProt O76083). The data set is described as follows: Inhibition of PDE9A (unknown origin) at 2 uM.
Chain of High affinity cGMP-specific 3',5'-cyclic phosphodiesterase 9A (Homo sapiens) (O76083 whole entry): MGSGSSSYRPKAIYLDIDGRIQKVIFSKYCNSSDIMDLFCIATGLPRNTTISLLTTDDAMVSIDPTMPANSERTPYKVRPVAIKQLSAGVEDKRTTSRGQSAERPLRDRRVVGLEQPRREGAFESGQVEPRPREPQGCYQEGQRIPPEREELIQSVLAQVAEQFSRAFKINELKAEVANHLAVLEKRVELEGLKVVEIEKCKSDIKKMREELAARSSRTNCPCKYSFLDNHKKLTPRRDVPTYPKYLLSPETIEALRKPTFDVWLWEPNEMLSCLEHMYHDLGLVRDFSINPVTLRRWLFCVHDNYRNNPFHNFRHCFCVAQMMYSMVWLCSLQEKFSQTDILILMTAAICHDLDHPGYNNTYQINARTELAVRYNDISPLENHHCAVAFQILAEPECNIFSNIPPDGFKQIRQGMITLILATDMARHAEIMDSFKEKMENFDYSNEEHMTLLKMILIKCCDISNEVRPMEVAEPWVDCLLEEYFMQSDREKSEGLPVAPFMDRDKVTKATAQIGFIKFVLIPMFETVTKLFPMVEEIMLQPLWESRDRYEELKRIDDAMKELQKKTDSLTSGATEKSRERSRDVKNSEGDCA
Data set [4] has as its target 3',5'-cyclic-AMP phosphodiesterase 4D (Homo sapiens) (UniProt Q08499). As to the kind of experiment: Inhibition of PDE4D (unknown origin) at 2 uM.
Data set [5] deals with cGMP-inhibited 3',5'-cyclic phosphodiesterase 3A (Homo sapiens) (UniProt Q14432). As to the kind of experiment: Inhibition of PDE3A (unknown origin) at 2 uM.
Chain of cGMP-inhibited 3',5'-cyclic phosphodiesterase 3A (Homo sapiens) (Q14432 whole entry): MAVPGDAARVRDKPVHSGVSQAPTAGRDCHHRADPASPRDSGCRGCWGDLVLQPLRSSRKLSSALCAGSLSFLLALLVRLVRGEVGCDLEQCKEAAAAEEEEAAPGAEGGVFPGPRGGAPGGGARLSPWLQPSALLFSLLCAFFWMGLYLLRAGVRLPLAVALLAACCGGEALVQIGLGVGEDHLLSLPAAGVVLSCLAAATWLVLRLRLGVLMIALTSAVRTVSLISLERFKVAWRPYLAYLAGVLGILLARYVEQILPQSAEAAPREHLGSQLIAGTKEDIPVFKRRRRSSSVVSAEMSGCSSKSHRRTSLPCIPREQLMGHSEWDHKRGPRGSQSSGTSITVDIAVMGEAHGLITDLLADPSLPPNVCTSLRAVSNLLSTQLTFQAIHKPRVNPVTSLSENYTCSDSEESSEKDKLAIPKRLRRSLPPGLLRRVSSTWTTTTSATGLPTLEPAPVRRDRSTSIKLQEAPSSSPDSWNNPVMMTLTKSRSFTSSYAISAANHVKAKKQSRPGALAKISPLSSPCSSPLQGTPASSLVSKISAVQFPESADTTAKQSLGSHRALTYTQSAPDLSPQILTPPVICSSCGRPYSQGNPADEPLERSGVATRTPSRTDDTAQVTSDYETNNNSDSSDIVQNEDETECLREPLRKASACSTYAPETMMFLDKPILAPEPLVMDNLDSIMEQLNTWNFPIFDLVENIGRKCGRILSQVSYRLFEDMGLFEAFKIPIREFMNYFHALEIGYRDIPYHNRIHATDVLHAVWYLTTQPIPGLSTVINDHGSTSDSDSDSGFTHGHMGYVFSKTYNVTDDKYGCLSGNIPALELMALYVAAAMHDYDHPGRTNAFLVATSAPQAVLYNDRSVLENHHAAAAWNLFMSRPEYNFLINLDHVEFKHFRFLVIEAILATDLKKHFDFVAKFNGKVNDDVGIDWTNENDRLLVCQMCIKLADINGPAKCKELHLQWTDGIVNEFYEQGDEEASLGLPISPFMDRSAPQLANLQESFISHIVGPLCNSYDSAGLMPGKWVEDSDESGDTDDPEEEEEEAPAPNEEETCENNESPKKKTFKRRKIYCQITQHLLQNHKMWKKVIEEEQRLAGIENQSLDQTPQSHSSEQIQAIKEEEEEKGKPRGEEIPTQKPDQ
For data set [6], the target named is cGMP-dependent 3',5'-cyclic phosphodiesterase (Homo sapiens) (UniProt O00408). As to the kind of experiment: Inhibition of PDE2 (unknown origin) at 2 uM.
Chain of cGMP-dependent 3',5'-cyclic phosphodiesterase (Homo sapiens) (O00408 whole entry): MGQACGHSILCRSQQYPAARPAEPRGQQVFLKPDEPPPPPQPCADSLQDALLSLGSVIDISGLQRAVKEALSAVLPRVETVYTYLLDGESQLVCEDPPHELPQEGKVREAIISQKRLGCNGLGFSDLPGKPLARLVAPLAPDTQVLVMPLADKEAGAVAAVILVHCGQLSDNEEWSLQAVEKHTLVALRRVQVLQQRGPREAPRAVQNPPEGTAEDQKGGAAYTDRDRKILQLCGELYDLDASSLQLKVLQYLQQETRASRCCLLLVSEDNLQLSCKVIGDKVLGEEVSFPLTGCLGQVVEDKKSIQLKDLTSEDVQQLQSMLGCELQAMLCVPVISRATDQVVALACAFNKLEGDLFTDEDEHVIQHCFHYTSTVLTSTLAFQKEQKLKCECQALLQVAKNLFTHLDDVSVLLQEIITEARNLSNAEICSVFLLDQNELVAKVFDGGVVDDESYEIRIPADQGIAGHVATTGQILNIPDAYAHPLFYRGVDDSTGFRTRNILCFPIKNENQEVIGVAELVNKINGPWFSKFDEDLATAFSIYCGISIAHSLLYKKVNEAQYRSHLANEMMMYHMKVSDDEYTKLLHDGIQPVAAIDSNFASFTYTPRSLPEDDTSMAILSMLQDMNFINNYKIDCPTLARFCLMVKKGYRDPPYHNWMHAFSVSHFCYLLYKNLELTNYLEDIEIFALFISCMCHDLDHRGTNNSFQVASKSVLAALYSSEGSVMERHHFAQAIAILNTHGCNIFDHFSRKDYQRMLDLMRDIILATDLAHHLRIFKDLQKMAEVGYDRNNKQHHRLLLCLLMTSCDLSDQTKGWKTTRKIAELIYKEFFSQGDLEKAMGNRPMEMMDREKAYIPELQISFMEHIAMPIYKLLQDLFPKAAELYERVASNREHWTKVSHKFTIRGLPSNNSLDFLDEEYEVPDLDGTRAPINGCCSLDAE
A further data set is filed under the species Homo sapiens. The data set is described as follows: Selectivity ratio of IC50 for PDE (unknown origin) to IC50 for PDE10A (unknown origin).
The next data set is filed under the species Rattus norvegicus. As to the kind of experiment: Antipsychotic activity in rat assessed as inhibition of amphetamine-stimulated locomotor activity. It counts as functional.
The nature of data set [7]: Ratio of drug uptake in brain to plasma in rat. It counts as ADME. As to conditions: read-out: BPR.
Data set [8] concerns the target Voltage-gated inwardly rectifying potassium channel KCNH2 (Homo sapiens, UniProt Q12809). As to the kind of experiment: Inhibition of human ERG.

Chain of 3',5'-cyclic-AMP phosphodiesterase 4D (Homo sapiens) (Q08499 whole entry): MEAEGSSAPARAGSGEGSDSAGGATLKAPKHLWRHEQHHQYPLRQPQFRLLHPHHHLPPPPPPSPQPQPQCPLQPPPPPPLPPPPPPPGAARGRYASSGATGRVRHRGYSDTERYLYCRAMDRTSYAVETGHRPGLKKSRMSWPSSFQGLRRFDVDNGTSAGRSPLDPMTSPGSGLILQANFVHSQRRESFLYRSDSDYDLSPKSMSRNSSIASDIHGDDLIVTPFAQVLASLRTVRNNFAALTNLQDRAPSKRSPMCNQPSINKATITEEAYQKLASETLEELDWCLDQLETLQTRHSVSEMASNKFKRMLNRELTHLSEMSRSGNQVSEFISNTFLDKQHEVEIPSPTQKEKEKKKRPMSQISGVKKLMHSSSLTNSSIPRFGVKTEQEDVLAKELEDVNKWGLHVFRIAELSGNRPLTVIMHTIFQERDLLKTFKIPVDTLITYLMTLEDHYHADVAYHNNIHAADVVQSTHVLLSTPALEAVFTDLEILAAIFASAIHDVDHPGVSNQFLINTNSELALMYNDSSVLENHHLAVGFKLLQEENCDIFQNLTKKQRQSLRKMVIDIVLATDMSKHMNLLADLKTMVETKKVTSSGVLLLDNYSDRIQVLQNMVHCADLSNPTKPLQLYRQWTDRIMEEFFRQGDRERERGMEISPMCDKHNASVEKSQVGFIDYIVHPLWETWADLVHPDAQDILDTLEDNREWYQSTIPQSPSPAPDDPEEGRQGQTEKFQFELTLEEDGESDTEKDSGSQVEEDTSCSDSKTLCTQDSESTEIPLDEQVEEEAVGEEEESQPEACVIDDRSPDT
T1 sequence (Q9Y233 whole entry): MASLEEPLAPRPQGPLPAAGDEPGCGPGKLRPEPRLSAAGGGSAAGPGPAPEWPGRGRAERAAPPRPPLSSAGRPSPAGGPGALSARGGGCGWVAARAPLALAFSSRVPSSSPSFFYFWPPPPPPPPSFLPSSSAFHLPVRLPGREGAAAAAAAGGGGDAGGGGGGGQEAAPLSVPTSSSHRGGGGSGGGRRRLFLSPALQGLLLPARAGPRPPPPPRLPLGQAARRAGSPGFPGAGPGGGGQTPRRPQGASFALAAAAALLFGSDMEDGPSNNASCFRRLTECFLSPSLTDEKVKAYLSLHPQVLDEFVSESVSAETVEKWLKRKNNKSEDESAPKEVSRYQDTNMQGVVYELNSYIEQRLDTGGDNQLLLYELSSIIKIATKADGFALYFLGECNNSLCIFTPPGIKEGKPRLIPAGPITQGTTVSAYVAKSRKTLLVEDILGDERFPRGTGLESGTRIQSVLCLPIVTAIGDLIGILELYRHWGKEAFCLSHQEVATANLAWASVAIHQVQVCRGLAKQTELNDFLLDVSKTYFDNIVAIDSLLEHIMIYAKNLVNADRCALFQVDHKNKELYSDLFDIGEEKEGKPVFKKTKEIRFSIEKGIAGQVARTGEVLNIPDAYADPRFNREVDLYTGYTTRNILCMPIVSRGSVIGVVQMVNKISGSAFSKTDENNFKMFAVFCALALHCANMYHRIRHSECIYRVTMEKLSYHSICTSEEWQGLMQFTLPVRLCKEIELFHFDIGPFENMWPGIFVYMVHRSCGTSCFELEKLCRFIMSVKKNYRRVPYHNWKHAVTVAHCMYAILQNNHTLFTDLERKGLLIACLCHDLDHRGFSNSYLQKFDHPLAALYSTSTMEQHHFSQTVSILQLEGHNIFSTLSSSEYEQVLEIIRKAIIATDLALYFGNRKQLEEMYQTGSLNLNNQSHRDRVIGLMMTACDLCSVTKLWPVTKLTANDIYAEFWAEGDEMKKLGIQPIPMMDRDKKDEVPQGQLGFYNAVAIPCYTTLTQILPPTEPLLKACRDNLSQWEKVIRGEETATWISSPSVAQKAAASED

Regarding `CN(C(=O)c1ccc(OCc2ccc3ccccc3n2)cc1)c1ccccc1`, the inhibition in data set [1] came to 94%. Also, in [2], the IC50 was found to be 950 nM.
Taken in the same sequence, the figures for `CN(C(=O)c1ccccc1)c1ccc(OCc2ccc3ccccc3n2)cc1` were 96% and 660 nM.
As to `CN(C(=O)c1ccccn1)c1ccc(OCc2ccc3ccccc3n2)cc1`, in data set [1], the inhibition was determined as 27%.
In the case of `CN(C(=O)c1ccc2ncsc2c1)c1ccc(OCc2nc3ccccc3n2C)cc1`, the inhibition in data set [1] worked out at 104%. In [2], this compound showed an IC50 of 61 nM.
Taken in the same sequence, the figures for `CN(C(=O)c1cc(-c2cccnc2)n[nH]1)c1ccc(OCc2ccc3ccccc3n2)cc1` were 101% and 13 nM.
On to `O=C(Nc1ccc(OCc2ccc3ccccc3n2)cc1)c1ccncc1`, for which the inhibition in data set [1] turned out to be 33%.
For `CN(C(=O)c1ccncc1)c1ccc(OCc2cn3ccccc3n2)cc1`, the inhibition in data set [1] was determined as 88%. In addition, the IC50 in data set [2] came out at 1600 nM.
Take `CN(C(=O)c1cccnc1)c1ccc(OCc2ccc3ccccc3n2)cc1`: the inhibition in data set [1] is 62%.
As for `CN(C(=O)c1ccc(OCc2ccc3ccccc3n2)cc1)c1ccn2ncnc2c1`, in [1], the inhibition was determined as 100%. Inhibition in data set [2] was half-maximal at 400 nM (IC50).
For `CN(C(=O)c1cc(-c2ccccn2)n[nH]1)c1ccc(OCc2ccc3ccccc3n2)cc1`, the CLH in the data set on Liver microsomes is 2.4 L/min. In addition, the inhibition in [3] came out at 0%; in [4] it was 0%; in data set [5] it was 0%; in data set [1] it was 100%; in [6], 12%. The IC50 in data set [2] turned out to be 12 nM.
Take `CN(C(=O)c1ccc(OCc2ccc3ccccc3n2)cc1)c1ccc2ncoc2c1`: in data set [1], the inhibition came out at 105%. This compound also registered an IC50 in data set [2] of 93 nM.
In the same order, the values of `CN(C(=O)c1cc(-c2ccccc2)n[nH]1)c1ccc(OCc2ccc3ccccc3n2)cc1` are 102% and 24 nM.
In the same order, the values of `CN(C(=O)c1ccc(-n2ccnc2)cc1)c1ccc(OCc2ccc3ccccc3n2)cc1` are 98% and 460 nM.
`CCCCN(C(=O)c1ccncc1)c1ccc(OCc2ccc3ccccc3n2)cc1` came in with an IC50 in data set [2] of 660 nM.
Take `CN(C(=O)c1cnc(-c2ccncc2)s1)c1ccc(OCc2ccc3ccccc3n2)cc1`: the inhibition in data set [1] amounted to 101%. In addition, the IC50 in data set [2] came to 88 nM.
`CN(C(=O)c1ccncc1)c1ccc(OCc2ccc3ccccc3n2)cc1`: in the data set filed under Homo sapiens, the Ratio IC50 was over 50. For the same compound, the ED50 in the data set listed under Rattus norvegicus came out at 60 mg/kg. Besides, the Kp in data set [7] was 0.6. Moreover, the IC50 in [8] was over 50000 nM; in data set [2], 250 nM. In addition, the CLH in the data set on Liver microsomes amounted to 1.1 L/min. Also, the inhibition in data set [3] worked out at 22%; in data set [4], 4%; in data set [5] it was 16%; in data set [1], 80%; in [6] it was 14%.
For `Cn1cc(-c2ccncc2)c(-c2ccc(OCc3ccc4ccccc4n3)cc2)n1` [MARDEPODECT], the ED50 in the data set listed under Rattus norvegicus was 1.8 mg/kg. The CLH in the data set on Liver microsomes came out at 2.2 L/min.
Compound `CN(C(=O)c1ccc(OCc2ccc3ccccc3n2)cc1)c1ccc2ncsc2c1` displayed a CLH with Liver microsomes of 6.1 L/min. Further, the inhibition in [3] is 7%; in [4], 13%; in data set [5], 12%; in data set [1] it was 105%; in data set [6], 15%. In addition, the IC50 in data set [2] is 16 nM.
Consider `CN(C(=O)c1cnc(-c2cccnc2)s1)c1ccc(OCc2ccc3ccccc3n2)cc1`, for which the inhibition in [1] came out at 103%. Also, half-maximal inhibition in data set [2] (IC50) required 87 nM.
Taken in the same sequence, the figures for `CN(C(=O)c1ccc(OCc2ccc3ccccc3n2)cc1)c1ccncc1` were 101% and 140 nM.
With `CN(C(=O)c1ccc(OCc2ccc3ccccc3n2)cc1)c1ccc2ncnn2c1`, in data set [1], the inhibition amounted to 101%. The compound further had an IC50 in [2] of 240 nM.
Taken in the same sequence, the figures for `CN(C(=O)c1ccc(OCc2ccc3ccccc3n2)cc1)c1ccc2nccn2c1` were 105% and 130 nM.
`CCN(C(=O)c1ccncc1)c1ccc(OCc2ccc3ccccc3n2)cc1` yielded an IC50 in [2] of 750 nM.
In the data set on Liver microsomes, `CN(C(=O)c1ccc2ncsc2c1)c1ccc(OCc2ccc3ccccc3n2)cc1` registered a CLH of 2.2 L/min. For the same compound, the results for the inhibition in data set [3], in [1] and in data set [6] were 5%, 101% and 1%, respectively. Moreover, it took 31 nM to reach half-maximal inhibition in data set [2] (IC50).
In the case of `CN(C(=O)c1ccc2ncsc2c1)c1ccc(OCc2nc3ccccc3o2)cc1`, in [1], the inhibition was 98%. This compound also returned an IC50 in data set [2] of 920 nM.
With `Cc1cccc(COc2ccc(N(C)C(=O)c3ccc4ncsc4c3)cc2)n1`, in data set [1], the inhibition was determined as 90%. Further, in data set [2], the IC50 worked out at 1600 nM.
For `CN(C(=O)c1cc(-c2ccncc2)n[nH]1)c1ccc(OCc2ccc3ccccc3n2)cc1`, the inhibition in data set [1] was found to be 99%. For the same compound, it took 110 nM to reach half-maximal inhibition in [2] (IC50).

The values above are taken from ChEMBL document CHEMBL2417495, “N-Methylanilide and N-methylbenzamide derivatives as phosphodiesterase 10A (PDE10A) inhibitors” (Bioorg Med Chem, 2013).
